Experimental data reported in paper PMC11100219, “Dual-function antimicrobial-antibiofilm peptide hybrid to tackle biofilm-forming Staphylococcus epidermidis” (Annals of Clinical Microbiology and Antimicrobials, 2024).
≈ marks a conversion by molar mass, not a printed value. Residues, ends and D or L forms follow the SMILES beside them.

Columns and labels:
[1] = system: all gram-positive bacterial strains; assay: Mean MIC and therapeutic index, gram-positive strains; format: cell-based; conditions: four gram-positive strains
Method: (§1) The minimal inhibitory concentrations (MICs) of peptide derivatives versus planktonic bacteria were assessed using a modification of the broth microdilution assay previously described in the National Committee for Clinical Laboratory Standards (NCCLS). In brief, bacteria at mid-logarithmic growth were collected by centrifugation at 2,500 × g for 5 min. Subsequently, the pellet was resuspended and adjusted in Mueller-Hinton Broth (MHB; BD Bacto™, USA) to an OD620 of 0.05. Fifty µL of bacterial suspensions was transferred to 96-well microplates. Later, 50 µL of peptide derivatives at 0.98–250 µg/mL in 10 mM PBS, was added to wells and incubated for 24 h at 37°C with continuous shaking at 220 rpm. […] The experiments were done in three technical replicates and repeated independently.
The therapeutic index (TI) is widely used for evaluating a peptide’s efficacy and safety. It is the ratio between the minimum hemolytic concentration (MHC, the concentration causing 10% hemolysis) and the geometric mean (GM) value of the MIC [15]. […] While, both lysine-substituted peptides (BiF2_7K and BiF2_5K7K) had higher TIs against all tested biofilm-forming bacteria than did the two parent peptides, and the TI of BiF2_5K7K was higher than that of BiF2_7K.

[2] = system: preformed S. epidermidis biofilm; assay: Biofilm eradication activity (peg lid, colony counting); format: cell-based, Staphylococcus epidermidis; conditions: 24 h treatment
Method: The eradication capacity of BiF2_5K7K against preformed biofilm was examined as previously described with some modifications. In brief, suspensions of S. epidermidis with a final density of 10^6 CFU/mL were added to 96-well microplates, then covered with 96-peg lids (Nunc™ Immuno TSP Lids, Denmark). Following 24 h of incubation at 37°C, the peg lids were washed with 0.85% NaCl to remove culture media and non-adherent cells. Afterwards, the biofilms adherent to peg lids were incubated at 37°C for 24 h with different concentrations of peptide derivatives. The peg lids were subsequently washed and placed on new plates containing PBS. The biofilms on the lid were removed using a water bath sonicator (Bandelin SONOREX™, Germany). Biofilms were subsequently diluted and then placed on TSA. Minimum biofilm eradication concentrations at 50% and 90% (MBEC50 and MBEC90) refer to the concentration of the peptide at which established biofilm was eradicated by at least 50% and 90%, respectively.

[3] = system: Staphylococcus epidermidis ATCC 35984; assay: Broth microdilution MIC / MBC; format: cell-based; conditions: plating of non-turbid wells on TSA, 24 h, 37°C
Method: as §1
(§2) To determine minimal bactericidal concentrations (MBCs) of the peptides, 50 µL of supernatant from non-turbid wells was plated on TSA, and the number of colony-forming units (CFUs) was observed after 24 h of incubation at 37°C. MBC was defined as the minimum concentration of peptide at which no bacterial colony was observed on the plate.

[4] = system: Acinetobacter baumanii MT strain; assay: Broth microdilution MIC / MBC; format: cell-based; conditions: 24 h, 37°C
Method: as §1, §2

[5] = system: Listeria monocytogenes 10403s; assay: Broth microdilution MIC / MBC; format: cell-based; conditions: 24 h, 37°C
Method: as §1, §2

[6] = system: Escherichia coli ATCC 25922; assay: Broth microdilution MIC / MBC; format: cell-based; conditions: 24 h, 37°C
Method: as §1, §2

[7] = system: Pseudomonas aeruginosa ATCC 27853; assay: Broth microdilution MIC / MBC; format: cell-based; conditions: 24 h, 37°C
Method: as §1, §2

[8] = system: Bacillus cereus ATCC 11778; assay: Broth microdilution MIC / MBC; format: cell-based; conditions: 24 h, 37°C
Method: as §1, §2

[9] = system: Salmonella Typhimurium ATCC 13311; assay: Broth microdilution MIC / MBC; format: cell-based; conditions: 24 h, 37°C
Method: as §1, §2

[10] = system: Staphylococcus aureus ATCC 25923; assay: Broth microdilution MIC / MBC; format: cell-based; conditions: 24 h, 37°C
Method: as §1, §2

[11] = system: S. epidermidis biofilm cells; assay: Biofilm cell viability, MTT assay; format: cell-based, Staphylococcus epidermidis; conditions: 24 h
Method: The biofilm cell viability after treated with hybrid peptide BiF2_5K7K was examined by 3-(4,5-Dimethylthiazol-2-yl)-2,5-Diphenyltetrazolium bromide or MTT colorimetric assays. Bacterial suspensions (10^6 CFU/mL in TSB) and peptide at concentration ranging from 0.98 to 250 µg/mL in 10 mM PBS were incubated in 96-well microtiter plates at 37°C for 24 h. After incubation, supernatant was discarded, followed by the addition of 0.4 mg/mL MTT (Sigma-Aldrich, USA) in 10 mM PBS to each well and incubated for 3 h at 37°C. Subsequently, supernatant was removed and dimethyl sulfoxide (DMSO; Fisher BioReagents™, UK) was added to dissolve the formed formazan crystals in wells. At a wavelength of 570 nm, the optical densities of the solutions were then determined by microplate reader.

[12] = system: S. epidermidis; assay: Serum stability by MIC in human serum; format: cell-based, Staphylococcus epidermidis; conditions: 10^6 CFU/mL, 24 h, 37°C
Method: The stability of BiF2_5K7K in the presence of human serum was assessed by evaluating the MIC values, as previously described. Human serum was subjected to heat inactivation at 56°C for 30 min. Bacterial suspensions were then adjusted to a concentration of 10^6 CFU/mL in MHB supplemented with 25% and 50% human serum. These suspensions were mixed with two-fold serially diluted concentrations of BiF2_5K7K (ranging from 0.98 to 250 µg/mL) and incubated at 37°C for 24 h. MICs were subsequently determined as described above. The study protocol was ethically approved by the Thammasat University Ethics Committee (COA No. 066/2562). All volunteers provided written informed consent.

[13] = broth microdilution, MHB, 0.98-250 µg/mL, visible inspection
[14] = plating of non-turbid wells on TSA

SMILES: CC[C@H](C)[C@H](NC(=O)[C@H](CCCCN)NC(=O)[C@H](CCCCN)NC(=O)[C@@H](NC(=O)[C@H](CC(C)C)NC(=O)[C@@H](N)Cc1ccccc1)C(C)C)C(=O)N[C@@H](CCCCN)C(=O)N[C@@H](CCCCN)C(=O)N[C@H](C(=O)N[C@@H](CC(C)C)C(=O)N[C@@H](CCCNC(=N)N)C(=O)N[C@@H](CCCNC(=N)N)C(N)=O)[C@@H](C)CC [BiF2_5K7K] (H-FLVKKIKKILRR-NH2; N-terminus assumed)
- GM +, geometric mean of MIC values from all gram-positive bacterial strains [1]: 199.22 mg/L
- MBEC50 ([2]; 24 h preformed biofilm on peg lids, 37°C): 31.25 µg/mL
- MBEC90 ([2]; more than 90% of mature biofilm eradicated): 125 µg/mL
- MBC [3]: 31.25 mg/L (≈ 20.3 µM)
- MIC [4, 13]: 31.2 mg/L (≈ 20.3 µM)
- MBC [4, 14]: 31.2 mg/L (≈ 20.3 µM)
- MIC [5, 13]: 31.25 mg/L (≈ 20.3 µM)
- MBC [5, 14]: 62.5 mg/L (≈ 40.6 µM)
- MIC [6, 13]: 250 mg/L (≈ 162 µM)
- MBC [6, 14]: 250 mg/L (≈ 162 µM)
- MIC [7, 13]: 62.5 mg/L (≈ 40.6 µM)
- MBC [7, 14]: 125 mg/L (≈ 81.1 µM)
- MIC [8, 13]: 250 mg/L (≈ 162 µM)
- MBC [8, 14]: 250 mg/L (≈ 162 µM)
- MIC [9, 13]: 31.25 mg/L (≈ 20.3 µM)
- MBC [9, 14]: 62.5 mg/L (≈ 40.6 µM)
- MIC [10, 13]: > 250 mg/L
- MBC [10, 14]: > 250 mg/L
- viability of biofilm cells ([11]; at MIC (15.63 µg/mL)): remained viable
- viability of biofilm cells ([11]; at higher concentrations (>15.63 µg/mL)): no growth of biofilm cells
- MIC in the presence of human serum ([12]; MHB with 25% heat-inactivated human serum): 15.63 mg/L
- MIC in the presence of human serum ([12]; MHB with 50% heat-inactivated human serum): 15.63 mg/L
